Results on 12 compounds are retold here after patent publication US20090227600A1, “4-(PYRAZINE-2-YL) -PYRROLIDINE -2-CARBOXYLIC ACID COMPOUNDS AND DERIVATIVES THEREOF AS HEPATITIS C VIRUS INHIBITORS” (priority 2004, published 2009).

pIC50: −log10 of the molar value.

Experiment [1] deals with Huh-7 HCV replicon cells (genotype 1a). Description: Replicon ELISA cell based assay, genotype 1a. Details: species or system HCV genotype 1a. As to conditions: Hepatitis C virus, Huh-7 genotype 1a replicon, 72 hours. The protocol:
100 μL of medium containing 10% FCS were added to each well of clear, flat-bottomed 96 well microplates, excepting wells in the top row. Test compound was diluted in assay medium to twice the final required starting concentration from a 40 mM stock solution in DMSO. 200 μL of the starting dilution were introduced into two wells each in the top row and doubling dilutions made down the plate by the sequential transfer of 100 μL aliquots with thorough mixing in the wells; the final 100 μL were discarded. The two bottom rows were not used for compound dilutions. Huh-7 HCV replicon cell monolayers nearing confluency were stripped from growth flasks with versene-trypsin solution and the cells were resuspended in assay medium at either 2×10^5 cells/mL (sub-line 5-15; genotype 1b; Lohmann, V., Komer, F., Koch, J-O., Herian, U., Thielmann, L. And Bartenschlager, R., 1999, Science, 285, pp 110-113) or at 3×10^5 cells/mL (genotype 1a; Gu, B., Gates, A. T., Isken, O., Behrens, S. E. and Sarisky, R. T., J. Virol., 2003, 77, 5352-5359). 100 μL of cell suspension were added to all wells and the plates incubated at 37° C. for 72 hours in a 5% CO2 atmosphere.
Following incubation, the assay medium was aspirated from the plates. The cell sheets were washed by gentle immersion in phosphate buffered saline (PBS), which was then aspirated off, and fixed with acetone:methanol (1:1) for 5 minutes. Following a further wash with PBS, 100 μL of ELISA diluent (PBS+0.05% v/v Tween 20+2% w/v skimmed milk powder) were added to all wells and the plates incubated at 37° C. for 30 minutes on an orbital platform. The diluent was removed and each well then received 50 μL of a 1/200 dilution of anti-HCV specific, murine, monoclonal antibody (either Virostat #1872 or #1877), except for wells in one of the compound-free control rows which received diluent alone to act as negative controls. The plates were incubated at 37° C. for 2 hours and washed 3 times with PBS/0.05% Tween 20, then 50 μL of horseradish peroxidase conjugated, anti-mouse, rabbit polyclonal serum (Dako #P0260), diluted 1/1000, were added to all wells. The plates were incubated for a further hour, the antibody removed and the cell sheets washed 5 times with PBS/Tween and blotted dry. The assay was developed by the addition of 50 μL of ortho-phenylenediamine/peroxidase substrate in urea/citrate buffer (SigmaFast, Sigma #P-9187) to each well, and colour allowed to develop for up to 15 minutes. The reaction was stopped by the addition of 25 μL per well of 2 M sulphuric acid and the plates were read at 490 nm on a Fluostar Optima spectrophotometer.
The substrate solution was removed and the plates were washed in tap water, blotted dry and the cells stained with 5% carbol fuchsin in water for 30 minutes. The stain was discarded and the cell sheets washed, dried and examined microscopically to assess cytotoxicity.
The absorbance values from all compound-free wells that had received both primary and secondary antibodies were averaged to obtain a positive control value. The mean absorbance value from the compound-free wells that had not received the primary antibody was used to provide the negative (background) control value. The readings from the duplicate wells at each compound concentration were averaged and, after the subtraction of the mean background from all values, were expressed as a percentage of the positive control signal. The quantifiable and specific reduction of expressed protein detected by the ELISA in the presence of a drug can be used as a measure of replicon inhibition. GraFit software was used to plot the curve of percentage inhibition against compound concentration and derive the 50% inhibitory concentration (IC50) for the compound.
A general note: In antiviral work, replicon cells carry a viral genome segment that copies itself.

Experiment [2] concerns the target T1, HCV RNA Polymerase, recombinant full-length NS5B, genotype 1b (Hepatitis C virus genotype 1b, UniProt Q9WMX2).
T1 construct: Recombinant full-length NS5B; made in house
The experiment is described as follows: In vitro HCV RNA-dependent RNA polymerase inhibition assay, genotype 1b full-length enzyme. The experiment is classed as biochemical, HCV genotype 1b. As to conditions: genotype 1b full-length NS5B enzyme. As for the experimental part: Incorporation of [^33P]-GMP into RNA was followed by absorption of the biotin labelled RNA polymer by streptavidin containing SPA beads. A synthetic template consisting of biotinylated 13mer-oligoG hybridised to polyrC was used as a homopolymer substrate.
b) Genotype 1b Full-Length Enzyme
Reaction Conditions were 0.5 μM [^33P]-GTP (20 Ci/mMol), 1 mM Dithiothreitol, 20 mM MgCl2, 5 mM MnCl2, 20 mM Tris-HCl, pH7.5, 1.6 μg/mL polyC/0.256 μM biotinylated oligoG13, 10% glycerol, 0.01% NP-40, 0.2 u/μL RNasin and 50 mM NaCl.
HCV RNA Polymerase (Recombinant full-length NS5B (Lohmann et al, J. Virol. 71 (11), 1997, 8416. ‘Biochemical properties of hepatitis C virus NS5B RNA-dependent RNA polymerase and identification of amino acid sequence motifs essential for enzymatic activity’) expressed in baculovirus and purified to homogeneity) was added to 4 nM final concentration.
5× concentrated assay buffer mix was prepared using 1M MnCl2 (0.25 mL), glycerol (2.5 mL), 10% NP-40 (0.025 mL) and Water (7.225 mL), Total 10 mL.
2× concentrated enzyme buffer contained 1M-Tris-HCl, pH7.5 (0.4 mL), 5M NaCl (0.2 mL), 1M-MgCl2 (0.4 mL), glycerol (1 mL), 10% NP-40 (10 μL), 1M DTT (20 μL) and water (7.97 mL), Total 10 mL.
Substrate Mix was prepared using 5× Concentrated assay Buffer mix (4 μL), [^33P]-GTP (10 μCi/μL, 0.02 μL), 25 μM GTP (0.4 μL), 40 u/μL RNasin (0.1 μL), 20 μg/mL polyrC/biotinylated-oligoG (1.6 μL), and Water (3.94 μL), Total 10 μL.
Enzyme Mix was prepared by adding 1 mg/ml full-length NS5B polymerase (1.5 μL) to 2.81 mL 2×-concentrated enzyme buffer.
The Assay was set up using compound (1 μL), Substrate Mix (10 μL), and Enzyme Mix (added last to start reaction) (10 μL), Total 21 μL.
The reaction was performed in a U-bottomed, white, 96-well plate. The reaction was mixed on a plate-shaker, after addition of the Enzyme, and incubated for 1 h at 22° C. After this time, the reaction was stopped by addition of 40 μL 1.875 mg/ml streptavidin SPA beads in 0.1 M EDTA. The beads were incubated with the reaction mixture for 1 h at 22° C. after which 120 μL 0.1 M EDTA in PBS was added. The plate was sealed, mixed centrifuged and incorporated radioactivity determined by counting in a Trilux (Wallac) or Topcount (Packard) Scintillation Counter.
After subtraction of background levels without enzyme, any reduction in the amount of radioactivity incorporated in the presence of a compound, compared to that in the absence, was taken as a measure of the level of inhibition. Ten concentrations of compounds were tested in three- or fivefold dilutions. From the counts, percentage of inhibition at highest concentration tested or IC50s for the compounds were calculated using GraFit 3, GraFit 4 or GraFit 5 (Erithacus Software Ltd.) software packages or a data evaluation macro for Excel based on XLFit Software (IDBS).

T1 sequence (Q9WMX2 2420-3010): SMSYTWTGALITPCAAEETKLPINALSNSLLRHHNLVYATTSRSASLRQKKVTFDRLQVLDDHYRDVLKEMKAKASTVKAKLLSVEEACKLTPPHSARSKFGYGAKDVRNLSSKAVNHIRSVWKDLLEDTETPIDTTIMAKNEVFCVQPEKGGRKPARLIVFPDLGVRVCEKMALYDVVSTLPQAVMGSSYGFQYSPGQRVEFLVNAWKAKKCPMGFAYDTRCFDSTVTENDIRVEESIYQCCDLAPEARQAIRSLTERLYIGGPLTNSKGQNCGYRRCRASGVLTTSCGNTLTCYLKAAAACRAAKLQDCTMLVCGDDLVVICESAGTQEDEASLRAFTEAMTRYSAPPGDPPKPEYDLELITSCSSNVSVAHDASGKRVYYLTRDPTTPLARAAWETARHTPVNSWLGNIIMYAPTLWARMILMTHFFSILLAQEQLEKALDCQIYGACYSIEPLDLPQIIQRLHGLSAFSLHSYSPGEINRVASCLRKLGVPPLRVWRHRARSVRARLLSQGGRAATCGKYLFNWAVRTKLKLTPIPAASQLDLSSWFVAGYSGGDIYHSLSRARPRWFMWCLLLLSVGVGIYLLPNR

A word on the pIC50: it is the negative decadic logarithm of the IC50, by convention in mol/L. Turning to `COc1cc(C(=O)N2[C@@H](c3nccs3)[C@@H](c3cnccn3)C[C@@]2(Cn2cccn2)C(=O)O)ccc1C(C)(C)C` (racemic) [Example 11, rel-(2R,4S,5R)-1-(3-Methoxy-4-tert-butylbenzoyl)-4-(pyrazin-2-yl)-2-(1H-pyrazol-1-ylmethyl)-5-(1,3-thiazol-2-yl)pyrrolidine-2-carboxylic acid], the pIC50 was greater than 5.00 in experiment [1] and greater than 7.00 in experiment [2].
On the same counts, the results for `COc1cc(C(=O)N2[C@@H](c3ncc(C)s3)[C@@H](c3cnccn3)C[C@@]2(Cc2nccs2)C(=O)O)ccc1C(C)(C)C` (racemic) [Example 13, rel-(2R,4S,5R)-1-(3-Methoxy-4-tert-butylbenzoyl)-5-(5-methyl-1,3-thiazol-2-yl)-4-(pyrazin-2-yl)-2-(1,3-thiazol-2-ylmethyl)pyrrolidine-2-carboxylic acid] are greater than 5.00 and greater than 7.00.
With `COc1cc(C(=O)N2[C@@H](c3ncc(C)s3)[C@@H](c3cnccn3)C[C@@]2(Cc2cscn2)C(=O)O)ccc1C(C)(C)C` (racemic) [Example 15, rel-(2R,4S,5R)-1-(3-Methoxy-4-tert-butylbenzoyl)-5-(5-methyl-1,3-thiazol-2-yl)-4-(pyrazin-2-yl)-2-(1,3-thiazol-4-ylmethyl)pyrrolidine-2-carboxylic acid], the pIC50 in experiment [1] was greater than 5.00; in experiment [2], greater than 7.00.
The matching figures for `COc1cc(C(=O)N2[C@@H](c3nccs3)[C@@H](c3cnccn3)C[C@@]2(CC(C)C)C(=O)O)ccc1C(C)(C)C` (single isomer, unassigned; enantiomer a) [Compound B, reference compound]: 4.00 to 5.00 and less than 6.30.
The matching figures for `COc1cc(C(=O)N2[C@@H](c3nccs3)[C@@H](c3cnccn3)C[C@@]2(Cc2cscn2)C(=O)O)ccc1C(C)(C)C` (single isomer, unassigned; enantiomer a) [Example 2]: greater than 5.00 and greater than 7.00.
The matching figures for `COc1cc(C(=O)N2[C@@H](c3nccs3)[C@@H](c3cnccn3)C[C@@]2(Cc2nccs2)C(=O)O)ccc1C(C)(C)C` (single isomer, unassigned; enantiomer a) [Example 4]: greater than 5.00 and greater than 7.00.
On to `COc1cc(C(=O)N2[C@@H](c3ncc(C)s3)[C@@H](c3cnccn3)C[C@@]2(Cc2ccsn2)C(=O)O)ccc1C(C)(C)C` (single isomer, unassigned; enantiomer a) [Example 6], for which the negative logarithm of the IC50 (pIC50) was greater than 5.00 in experiment [1] and greater than 7.00 in experiment [2].
The matching figures for `COc1cc(C(=O)N2[C@@H](c3nccs3)[C@@H](c3cnccn3)C[C@@]2(Cc2ccsn2)C(=O)O)ccc1C(C)(C)C` (single isomer, unassigned; enantiomer a) [Example 8]: greater than 5.00 and greater than 7.00.
The matching figures for `COc1cc(C(=O)N2[C@@H](c3ncc(C)s3)[C@@H](c3cnccn3)C[C@@]2(Cn2cccn2)C(=O)O)ccc1C(C)(C)C` (single isomer, unassigned; enantiomer a) [Example 10]: greater than 5.00 and greater than 7.00.
`COc1cc(C(=O)N2[C@@H](c3nccs3)[C@@H](c3cnccn3)C[C@@]2(Cn2cccn2)C(=O)O)ccc1C(C)(C)C` (single isomer, unassigned; enantiomer a) [Example 12]: the figures for the pIC50 in experiment [1] and in experiment [2] were greater than 5.00 and greater than 7.00, respectively.
In the case of `COc1cc(C(=O)N2[C@@H](c3ncc(C)s3)[C@@H](c3cnccn3)C[C@@]2(Cc2nccs2)C(=O)O)ccc1C(C)(C)C` (single isomer, unassigned; enantiomer a) [Example 14], the negative logarithm of the IC50 (pIC50) was greater than 5.00 in experiment [1] and greater than 7.00 in experiment [2].
The matching figures for `COc1cc(C(=O)N2[C@@H](c3ncc(C)s3)[C@@H](c3cnccn3)C[C@@]2(Cc2cscn2)C(=O)O)ccc1C(C)(C)C` (single isomer, unassigned; enantiomer a) [Example 16]: greater than 5.00 and greater than 7.00.
